Laboratory results: PubChem BioAssay (NCI)
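How tested: cells in 96-well plates exposed to compound for 48 hours at five concentrations. TGI denotes the concentration required for complete inhibition of growth.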

Experiments:
Assay in all cases: growth of human tumour cells (NCI), 48 h
786-0 renal = tested on: 786-0 renal
CAKI-1 renal = tested on: CAKI-1 renal
HCT-15 colon = tested on: HCT-15 colon
HOP-62 NSCLC = tested on: HOP-62 NSCLC
K-562 leukemia = tested on: K-562 leukemia
KM12 colon = tested on: KM12 colon
MDA-N = tested on: MDA-N
NCI-H226 lung = tested on: NCI-H226 lung
NCI/ADR-RES ovarian = tested on: NCI/ADR-RES ovarian
SK-MEL-2 melanoma = tested on: SK-MEL-2 melanoma
UACC-257 melanoma = tested on: UACC-257 melanoma

Structure (SMILES)	TGI (786-0 renal) [µM]	TGI (CAKI-1 renal) [µM]	TGI (HCT-15 colon) [µM]	TGI (HOP-62 NSCLC) [µM]	TGI (K-562 leukemia) [µM]	TGI (KM12 colon) [µM]	TGI (MDA-N) [µM]	TGI (NCI-H226 lung) [µM]	TGI (NCI/ADR-RES ovarian) [µM]	TGI (SK-MEL-2 melanoma) [µM]	TGI (UACC-257 melanoma) [µM]
COc1cc2c(cc1Cl)n([O-])c(C#N)c(N1CCN(c3ccc([N+](=O)[O-])cc3)CC1)[n+]2=O	> 100	> 100	> 100	> 62.8	> 100	> 100	> 100	> 100	> 100	> 100	> 100
NC(=O)CS(=O)CC(N)C(=O)O (centres undefined)	> 100	> 100	> 100	> 100	> 100	> 100	> 100	> 100	> 100	> 100	> 100
O=[N+]([O-])c1ccc(Cl)cc1C=NC12CC3CC(CC(C3)C1)C2	> 95.2	> 100	> 100	> 100	43	> 91	> 100	> 100	> 86.9	> 100	> 31.6
Nc1nc2cc(CNc3ccc(C(=O)NC(CCC(=O)O)C(=O)O)cc3)ccc2nc1-c1ccccc1 (centres undefined)	> 10	> 10	> 10	> 10	> 10	> 10	> 10	> 10	> 10	> 10	> 10
CCOC(=O)N(C)C1(c2ccccc2)CCN(CCCC(=O)c2ccc(F)cc2)CC1	88.7	> 100	> 100	> 100	72.7	81.1	41.5	> 100	> 100	53.5	38.2
CC(=O)NC1=C(C)C(=O)c2c(nc3n2CC[C@H]3OC(C)=O)C1=O	4.32	8.22	12.6	28.3	> 100	3.52	1.69	29.7	15.6	3.52	2.2
O=C(NN1C(=O)C=CC1=O)c1ccccc1Nc1ccccc1C(=O)NN1C(=O)C=CC1=O	> 100	> 100	> 100	> 100	> 100	> 100	> 100	> 100	> 100	> 100	> 100
Nc1c(S(=O)(=O)O)cc(Nc2cccc(S(=O)(=O)/C=C/S(=O)(=O)O)c2)c2c1C(=O)c1ccccc1C2=O	> 100	> 100	> 100	> 100	> 100	> 100	> 100	> 100	> 100	> 100	> 100
CC(C)(C)c1cc(C2COC(=O)COCC(=O)OCCOCCOCCO2)cc(C(C)(C)C)c1O (centres undefined)	43.3	51.3	> 100	> 100	> 100	> 100	38.5	> 100	> 100	90.3	> 100
COc1ccc2c(c1)-c1oc3ccccc3c(=O)c1CO2	> 100	50.6	> 100	> 100	> 100	> 100	78.1	> 100	> 100	83.3	99.3
COc1cc(C2S/C(=C/c3ccccc3)C(=O)N2c2cccc([N+](=O)[O-])c2)cc(OC)c1OC (centres undefined)	> 100	> 100	> 100	> 100	> 100	> 100	55.7	> 100	> 100	67.9	> 100
CC(=O)NC1=CC(=O)c2cc(C)cc(O)c2C1=O	27.3	42.9	13.8	35.2	14.7	33.4	3.02	38.5	23.9	17.9	4.79
CN(C)CCOC1(CC2CCCCC2)CCC(C(C)(C)C)CC1 (centres undefined)	5.91	19.1	13.4	11.2	5.93	14.4	13.1	21.2	23.8	13.7	11.8
NC(=O)NCCCC(NC(=O)OCCCCCn1ccc(=O)[nH]c1=O)C(=O)O (centres undefined)	> 100	> 100	> 100	> 100	> 100	> 100	> 100	> 100	> 100	> 100	> 100
